# From US4013449A, “Method of controlling weed growth in a paddy field” (priority 1974, dated 1977)
# “Also recorded” adds a separate entry of the source.
# Key:
# rice plant [1] = assay: Reference Experiment 2: foliage treatment, phytotoxicity of rice plant; format: in vivo; conditions: DCPA 1000 ppm alone
# Text: In unglazed pots having diameters of 9 cm, diluvium clay loam was filled and rice seeds and barnyard grass seeds were sowed and grown. […] The phytotoxicity of rice and herbicidal effect on barnyard grass were observed 20 days from the treatment.
# [2] = Experiment 3: decomposition of DCPA in soil; format: physicochemical; conditions: Alluvium loam soil, DCPA 100 g/are; for inhibition of the decomposition of DCPA in soil: NAC 3.3 g/are
# Protocol: The method of this invention is treatment in flooded water. Accordingly, transfer of the active ingredients into the soil of the paddy field is unavoidable. The decompositions of the active ingredients in the paddy soil were measured.
# Soil: Alluvium loam soil
# The active ingredients were uniformly mixed in a 5 mm
# Analysis: The concentrations of DCPA were
# measured by gas chromatography in […]
# barnyard grass [3] = assay: Example 1: usual transplanting culture, paddy field, poured into flooded water, herbicidal effect on barnyard grass; format: in vivo, Echinochloa crusgalli; conditions: for Herbicidal effect, barnyard grass: 3 weeks; for herbicidal effect to barnyard grass and broadleaf weeds: poured into flooded water; on Herbicidal effect, barnyard grass: key: 5: complete control; 4: excellent effect; 3: large effect; 2: fair effect; 1: small effect; 0: no effect
# Text: (§1) DCPA and β-NAC were separately crushed into fine powders by a jetmizer. The crushed DCPA and β-NAC were mixed in ratios of 80 : 1; 40 : 1; 20 : 1 and 10 : 1 together with a dispersing agent (Sorpol 5039 manufactured by Toho Chemical Co. and Rapizol BB-74 manufactured by Nippon Fat & Oil Co.) to form a wettable powder. The compositions were applied under the following conditions in a paddy field of Ishigakijima, Okinawa-Ken, Japan.
# (§2) 1. Plot size: Two replications, each 1 m^2 per division
# (§3) 2. Culturing method: Usual transplanting
# (§4) 3. Rice variety: Taichu 65
# (§5) 5 - 6 leaf stage of rice plants at the transplanting;
# (§6) a. Treating time Mar. 16, 1974 (17 days after transplanting)
# (§7) 2 - 2.5 leaf stage of barnyard grass
# (§8) Each composition was diluted with 50 cc of water and the solution was poured in the rows by using a watering pot
# (§9) Barnyard grass (Echinochloa crusgalli);
# (§10) After 3 weeks from the treatment, the herbicidal effect and the phytotoxicity were observed.
# broadleaf weeds [4] = assay: Example 1: usual transplanting culture, paddy field, poured into flooded water, herbicidal effect on broadleaf weeds; format: in vivo; conditions: 3 weeks; further: key: 5: complete control; 4: excellent effect; 3: large effect; 2: fair effect; 1: small effect; 0: no effect
# Text: as §1, §2, §3, §4, §5, §6, §7, §8
# Monochoria vaginalis (Burm fil) Presl;
# Dopatrium junceum (Roxb) Hamilt;
# Rotala indica (Willd) koehne;
# Eleocharis acicularis Roem et Schult;
# as §10
# rice plant [5] = assay: Example 1: usual transplanting culture, paddy field, phytotoxicity to rice plant; format: in vivo, Taichu 65; design: key: X: killed; ++++: serious damage; +++: high damage; ++: middle damage; +: low damage; ±: quite low damage; -: no damage; conditions: 3 weeks
# Text: as §1, §2, §3, §4, §5, §6, §7, §8, §10
# barnyard grass [6] = assay: Example 2: mechanical transplanting using young seedlings, poured into flooded water, herbicidal effect on barnyard grass; format: in vivo, Echinochloa crusgalli; conditions: for Herbicidal Effect, BG: 20 days; on Herbicidal Effect, BG: key: 5: complete control; 4: excellent effect; 3: large effect; 2: fair effect; 1: small effect; 0: no effect
# Protocol: (§11) The tests were conducted by using the compositions of Example 1 in the paddy field of Ishigakijima, Okinawa-Ken, Japan.
# (§12) 1. Plot size: Two replications each 1 m^2 per division.
# (§13) 2. Culturing method: Mechanical transplanting using young seedlings
# (§14) 3. Rice variety: Nihonbare
# (§15) 4. Transplanting: Apr. 8, 1974
# (§16) 2.3 - 3 leaf stage of rice at the transplanting;
# (§17) 5. Depth of water: 3 - 5 cm
# (§18) A. first treatment: Apr. 19, 1974
# (§19) (16 days after transplanting)
# as §7
# (§20) B. second treatment: Apr. 23, 1974
# (§21) (20 days after transplanting)
# (§22) 3 - 3.5 leaf stage of barnyard grass.
# (§23) Each composition was diluted with 50 cc of water and the solution was poured in the rows by using a watering pot.
# as §9
# (§24) After 20 days from the treatment (the first treatment and the second treatment), the herbicidal effects and the condition of the rice were observed.
# broadleaf weeds [7] = assay: Example 2: mechanical transplanting using young seedlings, poured into flooded water, herbicidal effect on broadleaf weeds; format: in vivo; conditions: 20 days; further: key: 5: complete control; 4: excellent effect; 3: large effect; 2: fair effect; 1: small effect; 0: no effect
# Protocol: as §11, §12, §13, §14, §15, §16, §17, §18, §19, §7, §20, §21, §22, §23
# Monochoria vaginalis (Burm fil) Presel;
# Rotala indica (Willd) Koehne;
# Scirpus juncoides Roxb; and
# as §24
# Insecticidal effect = conditions: in vivo
# house fly = assay: LD50 to house fly (Table 1); conditions: addition of piperinyl butoxide
# larva of mosquito = assay: LD50 to larva of mosquito (Table 1); conditions: read-out: LD50 to larva of mosquito
# [8] = A: 2 - 2.5 leaf stage, DCPA 60 g/are, β-NAC none
# [9] = B: 3 - 3.5 leaf stage, DCPA 60 g/are, β-NAC none
# [10] = A: 2 - 2.5 leaf stage, DCPA none, β-NAC 4.0 g/are
# [11] = B: 3 - 3.5 leaf stage, DCPA none, β-NAC 4.0 g/are
smiles,measurement,setting,value
"CCC(=O)Nc1ccc(Cl)c(Cl)c1 [DCPA, 3,4-dichloropropionanilide, reference compound]",Phytotoxicity to rice plants,rice plant [1],not found
same,minimum residues of DCPA in soil,"[2]; α-NAC or β-NAC 3.3 g/are where combined, gas chromatography",4 days
same,"Herbicidal effect, barnyard grass","barnyard grass [3]; DCPA 60 g/are, β-NAC none",0
same,herbicidal effect to barnyard grass and broadleaf weeds,barnyard grass [3]; DCPA 60 g/are,no herbicidal effect
same,"Herbicidal effect, broadleaf weeds","broadleaf weeds [4]; DCPA 60 g/are, β-NAC none",0
same,Phytotoxicity to rice plant,"rice plant [5]; DCPA 60 g/are, β-NAC none",-
same,"Herbicidal Effect, BG",barnyard grass [6]; [8],0
same,"Herbicidal Effect, BG",barnyard grass [6]; [9],0
same,herbicidal effect,"barnyard grass [6]; DCPA 60 g/are, 2 - 2.5 and 3 - 3.5 leaf stage of barnyard grass",no herbicidal effect was found
same,"Herbicidal Effect, BLW",broadleaf weeds [7]; [8],0
same,"Herbicidal Effect, BLW",broadleaf weeds [7]; [9],0
"CNC(=O)Oc1cccc2ccccc12 [α-NAC, α-naphthyl-N-methyl carbamate]",inhibition of the decomposition of DCPA in soil,[2],inhibit the decomposition of DCPA
"CNC(=O)Oc1ccc2ccccc2c1 [β-NAC, β-naphthyl-N-methyl carbamate]",insecticidal effect,Insecticidal effect,low insecticidal effect; also recorded: no insecticidal effect
same,inhibition of the decomposition of DCPA in soil,[2],higher effect for inhibiting the decomposition of DCPA
same,"Herbicidal effect, barnyard grass","barnyard grass [3]; DCPA none, β-NAC 4.0 g/are",0
same,herbicidal effect to barnyard grass and broadleaf weeds,barnyard grass [3]; β-NAC 4 g/are,no herbicidal effect
same,"Herbicidal effect, broadleaf weeds","broadleaf weeds [4]; DCPA none, β-NAC 4.0 g/are",0
same,Phytotoxicity to rice plant,"rice plant [5]; DCPA none, β-NAC 4.0 g/are",-
same,"Herbicidal Effect, BG",barnyard grass [6]; [10],0
same,"Herbicidal Effect, BG",barnyard grass [6]; [11],0
same,"Herbicidal Effect, BLW",broadleaf weeds [7]; [10],0
same,"Herbicidal Effect, BLW",broadleaf weeds [7]; [11],0
same,LD50 to house fly,house fly,12.5 µg/g
same,LC50,larva of mosquito,> 10 µg/mL
